Patent US4837241A (priority 1986, dated 1989)

Legend:
[1] = molecular target: muscarinic acetylcholine receptors; type: binding, rat (male Wistar); conditions: 3H-QNB 1 nM; whole forebrain membranes, male Wistar rats; 37° C., 20 min, pH 7.1; non-specific: atropine 1 μg/ml
[2] = background, in words; cited from earlier work
muscarinic = conditions: background, in words; cited from earlier work
[3] = background, in words; cited from earlier work; remark: listed apart in the source
muscarinic cholinergic = conditions: background, in words; cited from earlier work

SMILES | QNB binding Inhibition in vitro (IC50) [1] [µg/mL] | also measured
CCc1noc(C2=CC(C)CNC2)n1 (centres unmarked) | 7.5 | –
CCc1noc(C2=CCCN(C)C2)n1 | 3.5 | –
CCCc1nc(C2=CCCN(C)C2)no1 | 3.2 | –
C1=C(c2nc(C3CC3)no2)CNCC1 | 4.7 | –
CN1CCC=C(c2nc(C3CC3)no2)C1 | 2.0 | –
CCCCc1noc(C2=CCC(C)N(C)C2)n1 (centres unmarked) | 3.3 | –
COC(=O)C1=CCCN(C)C1 [arecoline, methyl 1-methyl-1,2,5,6-tetrahydropiperidine-3-carboxylate] | – | toxicity [2]: rather toxic compound; separation between central and peripheral muscarinic effects (muscarinic): small separation between central and peripheral muscarinic effects; biological half life [3]: very short biological half life; cholinergic agonist (muscarinic cholinergic): cholinergic agonist
CC(C)c1noc(C2=CCCN(C)C2)n1 | 4.9 | –
